pEC50: −log10 of the molar value. Read-outs that look alike come from different tables or passages of the source. Blank lines part the entries; values can stand above or below the compound they belong to.
System: HIV-IIIb
Assay: Test A: Antiviral Assays in MT4 Cells
Assay type: cell-based
Conditions: MT-4 cells infected with HIV-IIIb (0.004 m.o.i.), 5 days of incubation, CellTiter-Glo chemiluminescence readout, read-out: EC50
Experimental: Test A: Antiviral Assays in MT4 Cells
For the antiviral assay utilizing MT-4 cells, 0.4 μL of […] test concentration of 3-fold serially diluted compound in DMSO was added to 40 μL of cell growth medium (RPMI 1640, 10% FBS, 1% penicillin/Streptomycin, 1% L-Glutamine, 1% HEPES) in each well of 384-well assay plates (10 concentrations) in quadruplicate.
1 mL aliquots of 2×10e6 MT-4 cells are pre-infected for 1 and 3 hrs respectively, @37° C. with 25 μL (MT4) or of either cell growth medium (mock-infected) or a fresh 1:250 dilution of an HIV-IIIb concentrated ABI stock (0.004 m.o.i. for MT4 cells). Infected and uninfected cells are diluted in cell growth medium and 35 uL of 2000 (for MT4) cells is added to each well of the assay plates.
Assay plates were then incubated in a 37° C. incubator. After 5 days of incubation, 25 μl of 2× concentrated CellTiter-Glo™ Reagent (catalog #G7573, Promega Biosciences, Inc., Madison, Wis.) was added to each well of the assay plate. Cell lysis was carried out by incubating at room temperature for 2-3 min and then chemiluminescence was read using the Envision reader (PerkinElmer).

[1] = Human immunodeficiency virus 1, IIIB, MT4, 120 h

SMILES: Cc1c([C@H](OC(C)(C)C)C(=O)O)c(-c2ccc3c4c(ccnc24)CCO3)c2ccccc2c1F [Compound 122, (2S)-2-tert-butoxy-2-((R)-1-(2,3-dihydropyrano[4,3,2-de]quinolin-7-yl)-4-fluoro-3-methylnaphthalen-2-yl)acetic acid]
pEC50: 7.44

pEC50 [1]: 4.54
SMILES: Cc1cc2c(C(N)=O)cc(F)cc2c(-c2ccc3c4c(ccnc24)CCO3)c1[C@H](OC(C)(C)C)C(=O)O (atropisomer, axis not shown) [Compound 155]

pEC50 [1]: 4.44
SMILES: Cc1cc2cc(Cl)c(F)cc2c(-c2ccc3c4c(ccnc24)CCO3)c1[C@H](OC(C)(C)C)C(=O)O (atropisomer, axis not shown) [Compound 171]

SMILES: Cc1cc2ccccc2c(C2=CCC(C)(C)CC2)c1[C@H](OC(C)(C)C)C(=O)O [Compound 14, (S)-2-tert-Butoxy-2-(1-(4,4-dimethylcyclohex-1-enyl)-3-methylnaphthalen-2-yl)acetic acid]
pEC50 [1]: 7.96

SMILES: Cc1cc2c(-c3cncnc3)cccc2c(-c2ccc(Cl)cc2)c1C(OC(C)(C)C)C(=O)O (stereo not drawn) [Compound 41, 2-tert-Butoxy-2-(1-(4-chlorophenyl)-3-methyl-5-(pyrimidin-5-yl)naphthalen-2-yl)acetic acid]
pEC50 [1]: 6.40

SMILES: Cc1ccc2c(-c3ccc(Cl)cc3)c(C(OC(C)(C)C)C(=O)O)c(C)cc2c1 (stereo not drawn) [Compound 58, 2-tert-Butoxy-2-(1-(4-chlorophenyl)-3,6-dimethylnaphthalen-2-yl)acetic acid]
pEC50 [1]: 7.38

SMILES: Cc1cc2cc(-c3ccncc3)ccc2c(-c2ccc(Cl)cc2)c1[C@H](OC(C)(C)C)C(=O)O [Compound 53, (S)-2-tert-Butoxy-2-(1-(4-chlorophenyl)-3-methyl-6-(pyridin-4-yl)naphthalen-2-yl)acetic acid]
pEC50 [1]: 6.92

SMILES: Cc1cc2cc(C#N)c(F)cc2c(-c2ccc3c4c(ccnc24)CCO3)c1[C@H](OC(C)(C)C)C(=O)O [Compound 106A, (S)-2-tert-Butoxy-2-((R)-6-cyano-1-(2,3-dihydropyrano[4,3,2-de]quinolin-7-yl)-7-fluoro-3-methylnaphthalen-2-yl)acetic acid]
pEC50: 7.07

SMILES: Cc1cc2ccc(C#CC(C)(C)C)cc2c(-c2ccc(Cl)cc2)c1C(OC(C)(C)C)C(=O)O (stereo not drawn) [Compound 72, 2-tert-Butoxy-2-(1-(4-chlorophenyl)-7-(3,3-dimethylbut-1-ynyl)-3-methylnaphthalen-2-yl)acetic acid]
pEC50 [1]: 5.70

SMILES: Cc1cc2ccc(CCC3CC3)cc2c(-c2ccc(Cl)cc2)c1C(OC(C)(C)C)C(=O)O (stereo not drawn) [Compound 92, 2-tert-Butoxy-2-(1-(4-chlorophenyl)-7-(2-cyclopropylethyl)-3-methylnaphthalen-2-yl)acetic acid]
pEC50 [1]: 5.15

SMILES: Cc1cc2c(F)c(CO)ccc2c(-c2ccc3c4c(ccnc24)CCO3)c1[C@H](OC(C)(C)C)C(=O)O [Compound 186B, (S)-2-tert-butoxy-2-((R)-1-(2,3-dihydropyrano[4,3,2-de]quinolin-7-yl)-5-fluoro-6-(hydroxymethyl)-3-methylnaphthalen-2-yl)acetic acid]
pEC50: 7.62

SMILES: Cc1cc2c(F)cccc2c(-c2ccc(Cl)cc2)c1C(OC(C)(C)C)C(=O)O (stereo not drawn) [Compound 46, 2-tert-Butoxy-2-(1-(4-chlorophenyl)-5-fluoro-3-methylnaphthalen-2-yl)acetic acid]
pEC50 [1]: 5.85

pEC50 [1]: 4.92
SMILES: Cc1cc2ccc(C#CC(C)(C)N)cc2c(-c2ccc3c4c(ccnc24)CCO3)c1C(OC(C)(C)C)C(=O)O (stereo not drawn) [Compound 176]

SMILES: COc1ccc(Cc2c(OC)ccc3c(-c4ccc(Cl)cc4)c(C(OC(C)(C)C)C(=O)O)c(C)cc23)cc1 (stereo not drawn) [Compound 49, 2-tert-Butoxy-2-(1-(4-chlorophenyl)-6-methoxy-5-(4-methoxybenzyl)-3-methylnaphthalen-2-yl)acetic acid]
pEC50 [1]: 6.19

SMILES: Cc1cc2ccccc2c(C2=CCCC2)c1[C@H](OC(C)(C)C)C(=O)O [Compound 12, (S)-2-tert-Butoxy-2-(1-cyclopentenyl-3-methylnaphthalen-2-yl)acetic acid]
pEC50 [1]: 6.96

SMILES: Cc1cc2c(C#N)c(C)ccc2c(-c2ccc3c4c(ccnc24)CCO3)c1[C@H](OC(C)(C)C)C(=O)O (atropisomer, axis not shown) [Compound 118, (S)-2-tert-Butoxy-2-((R)-5-cyano-1-(2,3-dihydropyrano[4,3,2-de]quinolin-7-yl)-3,6-dimethylnaphthalen-2-yl)acetic acid]
pEC50 [1]: 7.44

SMILES: Cc1cc2cc(Cl)c(F)cc2c(-c2ccc3c4c(ccnc24)CCO3)c1[C@H](OC(C)(C)C)C(=O)O [Compound 101, (S)-2-tert-Butoxy-2-((R)-6-chloro-1-(2,3-dihydropyrano[4,3,2-de]quinolin-7-yl)-7-fluoro-3-methylnaphthalen-2-yl)acetic acid]
pEC50: 7.39

SMILES: CC(C)(C)O[C@H](C(=O)O)c1c(COc2cccnc2)cc2ccccc2c1-c1ccc(Cl)cc1 [Compound 25, (S)-2-tert-Butoxy-2-(1-(4-chlorophenyl)-3-((pyridin-3-yloxy)methyl)naphthalen-2-yl)acetic acid]
pEC50 [1]: 4.59

SMILES: CC(=O)NC(C)(C)C#Cc1ccc2cc(C)c(C(OC(C)(C)C)C(=O)O)c(-c3ccc(Cl)cc3)c2c1 (stereo not drawn) [Compound 96, 2-(7-(3-Acetamido-3-methylbut-1-ynyl)-1-(4-chlorophenyl)-3-methylnaphthalen-2-yl)-2-tert-butoxyacetic acid]
pEC50 [1]: 7.06

SMILES: C=Cc1ccc2cc(C)c(C(OC(C)(C)C)C(=O)O)c(-c3ccc(Cl)cc3)c2c1 (stereo not drawn) [Compound 76, 2-tert-Butoxy-2-(1-(4-chlorophenyl)-3-methyl-7-vinylnaphthalen-2-yl)acetic acid]
pEC50 [1]: 6.03

SMILES: Cc1cc2ccc(CC(C)C)cc2c(-c2ccc(Cl)cc2)c1C(OC(C)(C)C)C(=O)O (stereo not drawn) [Compound 94, 2-tert-Butoxy-2-(1-(4-chlorophenyl)-7-isobutyl-3-methylnaphthalen-2-yl)acetic acid]
pEC50 [1]: 4.92

SMILES: Cc1c(C(OC(C)(C)C)C(=O)O)c(-c2ccc(Cl)cc2)c2ccccc2c1CN(C)C (stereo not drawn) [Compound 133, 2-tert-Butoxy-2-(1-(4-chlorophenyl)-4-((dimethylamino)methyl)-3-methylnaphthalen-2-yl)acetic acid]
pEC50 [1]: 6.91

SMILES: Cc1cc2ccc(C#CC(C)(C)N)cc2c(-c2ccc(Cl)cc2)c1[C@H](OC(C)(C)C)C(=O)O [Compound 98, (S)-2-(7-(3-Amino-3-methylbut-1-ynyl)-1-(4-chlorophenyl)-3-methylnaphthalen-2-yl)-2-tert-butoxyacetic acid]
pEC50 [1]: 8.00

pEC50 [1]: 4.96
SMILES: Cc1cc2c(-c3cncnc3)cc(F)cc2c(-c2ccc3c4c(ccnc24)CCO3)c1[C@H](OC(C)(C)C)C(=O)O (atropisomer, axis not shown) [Compound 153]

SMILES: C=Cc1cc2ccccc2c(-c2ccc(Cl)cc2)c1[C@H](OC(C)(C)C)C(=O)O [Compound 29A, (S)-2-tert-Butoxy-2-(1-(4-chlorophenyl)-3-vinylnaphthalen-2-yl)acetic acid]
pEC50 [1]: 6.89

SMILES: Cc1cc2cc(C)c([C@H](OC(C)(C)C)C(=O)O)c(-c3ccc4c5c(ccnc35)CCO4)c2cc1F [Compound 112, (S)-2-tert-Butoxy-2-((R)-1-(2,3-dihydropyrano[4,3,2-de]quinolin-7-yl)-7-fluoro-3,6-dimethylnaphthalen-2-yl)acetic acid]
pEC50: 8.05

SMILES: Cc1cc2cc(Cl)ccc2c(-c2ccc(Cl)cc2)c1C(OC(C)(C)C)C(=O)O (racemic) [Compound 67, 2-tert-Butoxy-2-(6-chloro-1-(4-chlorophenyl)-3-methylnaphthalen-2-yl)acetic acid]
pEC50 [1]: 6.54

Source: patent US9102614B2, “Naphth-2-ylacetic acid derivatives to treat AIDS” (Gilead Sciences, Inc., priority 2010, dated 2015)
